From patent publication US20210052473A1, “COMPOSITION FOR REMOVING ALDEHYDE-BASED ODORS AND REACTIVE OXYGEN SPECIES” (Osteon Co. Ltd., priority 2019, published 2021)

Assay: Deodorization performance: anisidine value (p-AV) by ultraviolet spectrometry after reaction with 0.2% 2-nonenal isooctane standard solution
Details: 20 ml 0.2% 2-nonenal isooctane solution (v/v) stirred 30 minutes with 20 ml composition; lower value = less aldehyde; Table 5
Experimental: At this time, 0.2% 2-nonenal isooctane solution (v/v) was used as a standard solution to determine the deodorizing performance. 2-Nonenal is a typical aldehyde compound generated by the oxidation of unsaturated fatty acids in human skin. […] The deodorizing performance of the deodorizing substances was determined by measuring the anisidine values (p-AV).

| Structure (SMILES) | Anisidine value (p-AV) |
| --- | --- |
| O=S([O-])O.[Na+] [Comparative Example 1, Sodium bisulfite] | 33.28 |
| O=S([O-])O.[K+] [Comparative Example 2, Potassium bisulfite] | 33.23 |
| O=S([O-])O.[Li+] [Comparative Example 3, Lithium bisulfite] | 34.65 |
| O=S([O-])S(=O)(=O)[O-].[Na+].[Na+] [Comparative Example 4, Sodium metabisulfite] | 34.48 |
| O=S([O-])S(=O)(=O)[O-].[K+].[K+] [Comparative Example 5, Potassium metabisulfite] | 33.10 |
| O=S([O-])S(=O)(=O)[O-].[Na+].[Na+] [Comparative Example 6, Sodium metabisulfite] | 35.36 |
| O=S([O-])S(=O)(=O)[O-].[Li+].[Li+] [Comparative Example 7, Lithium metabisulfite] | 34.27 |
| O=S([O-])S(=O)[O-].[Na+].[Na+] [Comparative Example 8, Sodium hydrosulfite] | 34.39 |
| O=S([O-])S(=O)[O-].[K+].[K+] [Comparative Example 9, Potassium hydrosulfite] | 34.10 |
| O=S([O-])S(=O)[O-].[Li+].[Li+] [Comparative Example 10, Lithium hydrosulfite] | 33.98 |
| Nc1ccnc(=O)[nH]1 [Comparative Example 13, Cytosine] | 37.21 |
| Cc1c[nH]c(=O)[nH]c1=O [Comparative Example 14, Thymine] | 36.54 |
| Nc1ncnc2nc[nH]c12 [Comparative Example 15, Adenine] | 36.23 |
| Nc1nc2nc[nH]c2c(=O)[nH]1 [Comparative Example 16, Guanine] | 38.45 |
| NCCCC[C@H](N)C(=O)O [Comparative Example 17, Lysine] | 34.56 |
| N=C(N)NCCC[C@H](N)C(=O)O [Comparative Example 18, Arginine] | 38.41 |
| N[C@@H](Cc1c[nH]cn1)C(=O)O [Comparative Example 19, Histidine] | 38.09 |
